These compounds were tested against T1, human Y5 receptor (Homo sapiens, UniProt Q15761) (assay: Y5 receptor binding inhibition test). Conditions: not given.
T1 sequence (Q15761 1-445): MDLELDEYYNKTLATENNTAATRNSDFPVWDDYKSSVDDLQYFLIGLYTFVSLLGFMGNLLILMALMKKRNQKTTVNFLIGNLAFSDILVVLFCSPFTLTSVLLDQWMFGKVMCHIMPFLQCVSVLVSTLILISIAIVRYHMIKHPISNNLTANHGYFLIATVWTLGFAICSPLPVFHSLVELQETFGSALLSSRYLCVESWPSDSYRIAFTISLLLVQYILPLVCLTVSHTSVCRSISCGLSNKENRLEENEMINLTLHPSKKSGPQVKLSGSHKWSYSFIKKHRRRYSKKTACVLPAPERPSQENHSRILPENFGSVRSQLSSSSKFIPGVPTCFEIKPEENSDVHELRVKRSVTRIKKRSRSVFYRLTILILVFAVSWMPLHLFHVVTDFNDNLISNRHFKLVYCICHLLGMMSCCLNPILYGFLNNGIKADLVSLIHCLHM

Question: For `CC(C)n1c2c(c3cc(NC(=O)N(CCO)CCO)ccc31)CCCC2` [Compound 6-2], which “% Inhibition ratio (10 μM)” value is on record?
Answer: The value was 86%.

Same assay, conditions: 2 h, read-out: % Inhibition ratio (10 μM)

Question: For `CC(C)S(=O)(=O)NCCCCCNC(=O)c1ccc2c(c1)c1c(n2CC(N)=O)CCCC1` [Compound 1-61], which inhibition at 10 µM is on record?
Answer: The inhibition at 10 µM was 77%.

Question: `COCCn1c2c(c3cc(C(=O)NCCOCCNS(C)(=O)=O)ccc31)CCCC2` [Compound 1-53] was tested. Which inhibition at 10 µM did it give?
Answer: The inhibition at 10 µM was 66%.

Question: How did the inhibition at 10 µM turn out when `CCn1c2ccccc2c2cc(C(=O)NCCCCCNC(=O)c3ccc4[nH]ccc4c3)ccc21` [Compound 1-25] was run?
Answer: Its inhibition at 10 µM is 100%.

Question: How did the inhibition at 10 µM turn out when `CCn1c2ccccc2c2cc(NC(=O)CCCCCNC(=O)c3cccnc3)ccc21` [Compound 1-8] was run?
Answer: The inhibition at 10 µM was 100%.

Question: `CCn1c2ccccc2c2cc(NC(=O)CCCCCCCNS(=O)(=O)c3cccc4ccccc34)ccc21` [Compound 1-3] was tested. Which inhibition at 10 µM did it give?
Answer: Its inhibition at 10 µM is 78%.

Question: `CCn1c2c(c3cc(C(=O)NCCOCCNS(C)(=O)=O)ccc31)CCCC2` [Compound 1-51] was tested. Which inhibition at 10 µM did it give?
Answer: The inhibition at 10 µM was 80%.

Question: With `CCn1c2c(c3cc(C(=O)NCCCCCNS(=O)(=O)c4cccc5ccccc45)ccc31)CCCC2` [Compound 1-45] as the compound, how does the inhibition at 10 µM read?
Answer: Its inhibition at 10 µM is 87%.

Question: Which inhibition at 10 µM does the source give for `CCn1c2c(c3cc(C(=O)NCCCCCNS(=O)(=O)c4cccc5ccccc45)c(O)cc31)CCCC2` [Compound 1-43] here?
Answer: The inhibition at 10 µM was 54%.

Question: With `CCn1c2ccccc2c2cc(C(=O)NCCOCCNS(=O)(=O)c3cccc4ccccc34)ccc21` [Compound 1-28] as the compound, how does the inhibition at 10 µM read?
Answer: The inhibition at 10 µM was 100%.

Question: Which inhibition at 10 µM does the source give for `CCn1c2c(c3cc(NC(C)=O)ccc31)CCCCC2` [Compound 3-2] here?
Answer: The inhibition at 10 µM was 94%.

Question: For `CCn1c2ccccc2c2cc(C(=O)NCCCCCNS(=O)(=O)c3ccc4ccccc4c3)ccc21` [Compound 1-14], which inhibition at 10 µM is on record?
Answer: Its inhibition at 10 µM is 106%.

Question: Which inhibition at 10 µM does the source give for `CCn1c2ccccc2c2cc(C(=O)NCCCCNS(=O)(=O)c3cccc4ccccc34)ccc21` [Compound 1-31] here?
Answer: Its inhibition at 10 µM is 94%.

Question: For `CCn1c2ccccc2c2cc(C(=O)NC3CCC(CNS(=O)(=O)c4cccc5ccccc45)CC3)ccc21` (stereo not drawn) [Compound 1-35], which inhibition at 10 µM is on record?
Answer: Its inhibition at 10 µM is 75%.

Question: For `COCCn1c2c(c3cc(C(=O)NCCOCCNS(=O)(=O)C(C)C)ccc31)CCCC2` [Compound 1-50], which inhibition at 10 µM is on record?
Answer: Its inhibition at 10 µM is 89%.

Question: For `Cn1c2ccccc2c2cc(C(=O)NCCCCCNS(=O)(=O)c3cccc4ccccc34)ccc21` [Compound 1-46], which inhibition at 10 µM is on record?
Answer: Its inhibition at 10 µM is 102%.

Question: Which inhibition at 10 µM does the source give for `CCn1c2ccccc2c2cc(C(=O)NCCCCCNS(=O)(=O)c3cccc4ccccc34)c(O)cc21` [Compound 1-42] here?
Answer: Its inhibition at 10 µM is 74%.

Question: With `CCCCn1c2ccccc2c2cc(C(=O)NCCCCCNS(=O)(=O)c3cccc4ccccc34)ccc21` [Compound 1-48] as the compound, how does the inhibition at 10 µM read?
Answer: Its inhibition at 10 µM is 96%.

Same assay, conditions: test compound 10 μM; 3H-NPY; membrane of insect cells expressing human Y5 receptor; 4° C., 2 hours; relative to Y5 specific binding in solvent group

Question: How did the “% Inhibition ratio (10 μM)” value turn out when `CC(C)n1c2c(c3cc(NC(=O)N4CCN(c5ncccn5)CC4)ccc31)CCCC2` [Compound 7-21] was run?
Answer: Its value is 80%.

Question: `CC(C)n1c2c(c3cc(NC(=O)N(C)CCCSc4nnc[nH]4)ccc31)CCCC2` [Compound 5-24] was tested. Which “% Inhibition ratio (10 μM)” value did it give?
Answer: Its value is 95%.

Question: With `COCCCCN(C)C(=O)Nc1ccc2c(c1)c1c(n2C(C)C)CCCC1` [Compound 5-7] as the compound, how does the “% Inhibition ratio (10 μM)” value read?
Answer: The value was 100%.

Question: How did the “% Inhibition ratio (10 μM)” value turn out when `CC(C)n1c2c(c3cc(NC(=O)N(C)CCCN(C)C)ccc31)CCCC2` [Compound 5-5] was run?
Answer: Its value is 82%.

Question: With `CC(C)n1c2c(c3cc(NC(=O)N(C)CC4CCCO4)ccc31)CCCC2` (stereo not drawn) [Compound 5-13] as the compound, how does the “% Inhibition ratio (10 μM)” value read?
Answer: Its value is 98%.

Question: With `CCCCn1c2c(c3cc(NC(=O)N4CCOCC4)ccc31)CCCC2` [Compound 8-5] as the compound, how does the “% Inhibition ratio (10 μM)” value read?
Answer: Its value is 85%.

Question: How did the “% Inhibition ratio (10 μM)” value turn out when `CC(C)n1c2c(c3cc(NC(=O)N(C)CC(O)CO)ccc31)CCCC2` (stereo not drawn) [Compound 5-26] was run?
Answer: Its value is 108%.

Question: How did the “% Inhibition ratio (10 μM)” value turn out when `CC(C)n1c2c(c3cc(NC(=O)N4CCCC4)ccc31)CCCC2` [Compound 7-1] was run?
Answer: The value was 92%.

Question: For `CC(C)n1c2c(c3cc(NC(=O)N(C)CCc4ccncc4)ccc31)CCCCC2` [Compound 11-3], which “% Inhibition ratio (10 μM)” value is on record?
Answer: The value was 100%.

Question: How did the “% Inhibition ratio (10 μM)” value turn out when `CC(C)n1c2c(c3cc(NC(=O)N(C)C4CCCCC4)ccc31)CCCC2` [Compound 5-11] was run?
Answer: The value was 97%.

Question: With `CC(C)n1c2c(c3cc(NC(=O)N(C)CCN4CCOCC4)ccc31)CCCC2` [Compound 5-16] as the compound, how does the “% Inhibition ratio (10 μM)” value read?
Answer: The value was 86%.

Question: Which “% Inhibition ratio (10 μM)” value does the source give for `CC(=O)n1c2c(c3cc(NC(=O)N4CCOCC4)ccc31)CCCC2` [Compound 8-11] here?
Answer: Its value is 102%.
